In patent US20080096861A1, “Chemical Compounds” (SMITHKLINE BEECHAM CORPORATION, priority 2004, published 2008):

These molecules were tested on HIV-1 IIIB (assay: HOS HIV-1 infectivity assay). Details: Human immunodeficiency virus 1, IIIB; as determined by the infectivity assay; strain not stated in Table 2; read-out: Activity Level.
Format: cell-based
Procedure, shortened: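 HOS hCXCR4/hCCR5/hCD4/pHIV-LTR-luc cells, DMEM 2% FCS, 24 h preculture; cpd 1 h pre-virus; HIV-1 (PBL-grown) ~2 million RLU/well; 96 h, 37 °C. Readout: Steady-Glo luciferase (infected), CellTiter-Glo (no virus).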

`CC(C)CN(Cc1nc2ccccc2n1C[C@H]1CCCN(C)C1)[C@H]1CCCc2cccnc21` [Example 94, (8S)—N-[(1-{[(3S)-1-Methyl-3-piperidinyl]methyl}-1H-benzimidazol-2-yl)methyl]-N-(2-methylpropyl)-5,6,7,8-tetrahydro-8-quinolinamine] and `CC(C)CN(Cc1nc2ccccc2n1C[C@H]1CCCN(C(C)C)C1)[C@H]1CCCc2cccnc21` [Example 98, (8S)—N-[(1-{[(3S)-1-(1-Methylethyl)-3-piperidinyl]methyl}-1H-benzimidazol-2-yl)methyl]-N-(2-methylpropyl)-5,6,7,8-tetrahydro-8-quinolinamine] fall in the same range of IC50: 100 to 500 nM for the first, 100 to 500 nM for the second.

`CN1CCC[C@H](Cn2c(CN(CCO)[C@H]3CCCc4cccnc43)nc3ccccc32)C1` [Example 95, 2-{[(1-{[(3S)-1-Methyl-3-piperidinyl]methyl}-1H-benzimidazol-2-yl)methyl][(8S)-5,6,7,8-tetrahydro-8-quinolinyl]amino}ethanol] and `CN1CCC[C@H](Cn2c(CN(CCCO)[C@H]3CCCc4cccnc43)nc3ccccc32)C1` [Example 96, 3-{[(1-{[(3S)-1-Methyl-3-piperidinyl]methyl}-1H-benzimidazol-2-yl)methyl][(8S)-5,6,7,8-tetrahydro-8-quinolinyl]amino}-1-propanol] cannot be ordered by IC50: under 100 nM for the first, under 100 nM for the second.

`CCCN(Cc1nc2ccccc2n1C[C@H]1CCCN(C(C)C)C1)[C@H]1CCCc2cccnc21` [Example 97, (8S)—N-[(1-{[(3S)-1-(1-methylethyl)-3-piperidinyl]methyl}-1H-benzimidazol-2-yl)methyl]-N-propyl-5,6,7,8-tetrahydro-8-quinolinamine] and `CC(C)N1CCC[C@H](Cn2c(CN(CCO)[C@H]3CCCc4cccnc43)nc3ccccc32)C1` [Example 99, 2-{[(1-{[(3S)-1-(1-Methylethyl)-3-piperidinyl]methyl}-1H-benzimidazol-2-yl)methyl][(8S)-5,6,7,8-tetrahydro-8-quinolinyl]amino}ethanol] cannot be ordered by IC50: under 100 nM for the first, under 100 nM for the second.

`CC(C)N1CCC[C@H](Cn2c(CN(CCCO)[C@H]3CCCc4cccnc43)nc3ccccc32)C1` [Example 100, 3-{[(1-{[(3S)-1-(1-Methylethyl)-3-piperidinyl]methyl}-1H-benzimidazol-2-yl)methyl][(8S)-5,6,7,8-tetrahydro-8-quinolinyl]amino}-1-propanol] and `CN(C)CCN1CCC[C@H](Cn2c(CN(C)[C@H]3CCCc4cccnc43)nc3ccccc32)C1` [Example 105, (8S)—N-{[1-({(3S)-1-[2-(Dimethylamino)ethyl]-3-piperidinyl}methyl)-1H-benzimidazol-2-yl]methyl}-N-methyl-5,6,7,8-tetrahydro-8-quinolinamine] cannot be ordered by IC50: under 100 nM for the first, under 100 nM for the second.

`CN(C)CC(C)(C)CN1CCC[C@H](Cn2c(CN(C)[C@H]3CCCc4cccnc43)nc3ccccc32)C1` [Example 101, (8S)—N-{[1-({(3S)-1-[3-(Dimethylamino)-2,2-dimethylpropyl]-3-piperidinyl}methyl)-1H-benzimidazol-2-yl]methyl}-N-methyl-5,6,7,8-tetrahydro-8-quinolinamine] and `CN(Cc1nc2ccccc2n1C[C@H]1CCCN(Cc2cccn2C)C1)[C@H]1CCCc2cccnc21` [Example 104, (8S)—N-Methyl-N-{[1-({(3S)-1-[(1-methyl-1H-pyrrol-2-yl)methyl]-3-piperidinyl}methyl)-1H-benzimidazol-2-yl]methyl}-5,6,7,8-tetrahydro-8-quinolinamine] cannot be ordered by IC50: under 100 nM for the first, under 100 nM for the second.

First: CN(Cc1nc2ccccc2n1C[C@H]1CCCN(Cc2cccs2)C1)[C@H]1CCCc2cccnc21 [Example 102, (8S)—N-Methyl-N-[(1-{[(3S)-1-(2-thienylmethyl)-3-Piperidinyl]methyl}-1H-benzimidazol-2-yl)methyl]-5,6,7,8-tetrahydro-8-quinolinamine]
Second: CN(Cc1nc2ccccc2n1C[C@H]1CCCN(Cc2nccs2)C1)[C@H]1CCCc2cccnc21 [Example 103, (8S)—N-Methyl-N-[(1-{[(3S)-1-(1,3-thiazol-2-ylmethyl)-3-piperidinyl]methyl}-1H-benzimidazol-2-yl)methyl]-5,6,7,8-tetrahydro-8-quinolinamine]
The IC50 of the first is lower: under 100 nM for the first, 100 to 500 nM for the second.

`CN1CCC[C@H]1CN1CCC[C@H](Cn2c(CN(C)[C@H]3CCCc4cccnc43)nc3ccccc32)C1` [Example 106, (8S)—N-Methyl-N-({1-[((3S)-1-{[(2S)-1-methyl-2-pyrrolidinyl]methyl}-3-Piperidinyl)methyl]-1H-benzimidazol-2-yl}methyl)-5,6,7,8-tetrahydro-8-quinolinamine] and `CN1CCC[C@@H]1CN1CCC[C@H](Cn2c(CN(C)[C@H]3CCCc4cccnc43)nc3ccccc32)C1` [Example 108, (8S)—N-Methyl-N-([1-[((3S)-1-{[(2R)-1-methyl-2-pyrrolidinyl]methyl}-3-piperidinyl)methyl]-1H-benzimidazol-2-yl]methyl)-5,6,7,8-tetrahydro-8-quinolinamine] cannot be ordered by IC50: under 100 nM for the first, under 100 nM for the second.

Compared with `CC(C)N1CCC[C@H]1CN1CCC[C@H](Cn2c(CN(C)[C@H]3CCCc4cccnc43)nc3ccccc32)C1` [Example 107, (8S)—N-Methyl-N-({1-[((3S)-1-{[(2S)-1-(1-methylethyl)-2-Pyrrolidinyl]methyl}-3-piperidinyl)methyl]-1H-benzimidazol-2-yl}methyl)-5,6,7,8-tetrahydro-8-quinolinamine], `CC(C)N1CCC[C@@H]1CN1CCC[C@H](Cn2c(CN(C)[C@H]3CCCc4cccnc43)nc3ccccc32)C1` [Example 109, (8S)—N-Methyl-N-({1-[((3S)-1-{[(2R)-1-(1-methylethyl)-2-pyrrolidinyl]methyl}-3-piperidinyl)methyl]-1H-benzimidazol-2-yl}methyl)-5,6,7,8-tetrahydro-8-quinolinamine] is higher in IC50: under 100 nM for the first, 100 to 500 nM for the second.

`CN(Cc1nc2ccccc2n1CCCN)[C@H]1CCCc2cccnc21` [Example 110, (8S)—N-{[1-(3-Aminopropyl)-1H-benzimidazol-2-yl]methyl}-N-methyl-5,6,7,8-tetrahydro-8-quinolinamine] was tested, and the IC50 was under 100 nM.
